Results taken from paper PMC10489644, “In Vitro Evaluation of the Potential for Drug Interactions by Salidroside” (Nutrients, 2023).
Where “and” joins values, the source holds several entries; their conditions need not be identical. Equal values may be shown once.

Experiments:
CYP2D6 = CYP2D6 (Homo sapiens, UniProt P10635); settings: microsomes
Protocol: (§1) Incubation without 30 min pre-incubation, 178.5 µL of liver microsomes working was pre-incubated in a 37 °C water bath for 30 min. After the pre-incubation, 1.5 μL of test compound or control compound working solution, 60 μL of substrate working solution, and 60 μL of NADPH working solution were added; then, the reaction mixture was mixed by pipetting up and down and then incubated at 37 °C for 10 min. Incubation with 30 min pre-incubation. Next, 1.5 μL of test compound or control compound working solutions and 60 μL of NADPH working solution were added into 178.5 μL of liver microsome working solution, then the reaction mixture was mixed by pipetting up and down and then pre-incubated at 37 °C for 30 min. […]
(§2) For competitive and time-dependent CYP inhibition, the peak area ratios (PAR) of analyte/internal standard were used to semi-quantitatively determine the concentration of acetaminophen (CYP1A2 activity), 4’-hydroxydiclofenac (CYP2C9), 4’-hydroxymephenytoin (CYP2C19), dextrorphan (CYP2D6), 1’-hydroxymidazolam (CYP3A4), 6β-hydroxytestosterone (CYP3A4), hydroxybupropion (CYP2B6), and N-desethylamodiaquine (CYP2C8), with terfenadine as the internal standard by LC-MS/MS method. The HPLC-MS system utilized an Acquity UPLC system and Sciex API 4000 mass spectrometer in ESI positive mode, with quantitation employing MRM. […]

CYP2C8 = target: T1, CYP2C8 (Homo sapiens, UniProt P10632); experiment: biochemical
T1 sequence (P10632 1-490): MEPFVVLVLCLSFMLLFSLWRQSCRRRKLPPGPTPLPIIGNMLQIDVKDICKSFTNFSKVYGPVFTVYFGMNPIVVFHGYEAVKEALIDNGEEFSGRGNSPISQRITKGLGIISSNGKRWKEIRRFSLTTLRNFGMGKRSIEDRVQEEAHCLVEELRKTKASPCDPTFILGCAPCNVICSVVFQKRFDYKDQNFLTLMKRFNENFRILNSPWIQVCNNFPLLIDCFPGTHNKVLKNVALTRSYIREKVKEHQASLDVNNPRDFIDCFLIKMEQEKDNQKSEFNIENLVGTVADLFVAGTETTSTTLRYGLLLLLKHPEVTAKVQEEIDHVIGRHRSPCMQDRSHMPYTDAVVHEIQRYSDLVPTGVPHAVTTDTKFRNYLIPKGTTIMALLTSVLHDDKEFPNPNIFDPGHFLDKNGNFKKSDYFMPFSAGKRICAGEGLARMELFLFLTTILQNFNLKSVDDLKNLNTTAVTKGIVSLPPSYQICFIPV
Protocol: as §1, §2

[1] = test system: rat CYP enzymes (probe drug cocktail); set-up: method as in PMID 29796228; settings: salidroside 30 mg/kg/day, eight daily doses, day 8; cited from earlier work
in vitro = settings: Sprague-Dawley (SD), rat, plasma, pH 7.4
Protocol: The experiment was performed using equilibrium dialysis with the two compartments separated by a semi-permeable membrane. Phosphate-buffered saline (PBS) (pH 7.4) was added to one side of the membrane and the plasma solution to the other side. After equilibration (5 h at 37 °C), samples were taken from both sides of the membrane, transferred to a new plate, and were matrix-matched by the addition of an appropriate amount of PBS to the plasma samples and blank plasma to the PBS samples. […] Incubations were performed in duplicate. Warfarin served as a control. The fraction unbound in plasma (fu,p) = Cb/Cp, where Cb represents the concentration in buffer and Cp the concentration in plasma at 5 h.

MAO-B = test system: MAO-B; set-up: method as in PMID 19168123; settings: isolated compound at 10 µM; cited from earlier work
CYP2C19 = CYP2C19 (Homo sapiens, UniProt P33261); experiment: CYP direct inhibition in human liver microsomes
Sequence of CYP2C19 (P33261 whole entry): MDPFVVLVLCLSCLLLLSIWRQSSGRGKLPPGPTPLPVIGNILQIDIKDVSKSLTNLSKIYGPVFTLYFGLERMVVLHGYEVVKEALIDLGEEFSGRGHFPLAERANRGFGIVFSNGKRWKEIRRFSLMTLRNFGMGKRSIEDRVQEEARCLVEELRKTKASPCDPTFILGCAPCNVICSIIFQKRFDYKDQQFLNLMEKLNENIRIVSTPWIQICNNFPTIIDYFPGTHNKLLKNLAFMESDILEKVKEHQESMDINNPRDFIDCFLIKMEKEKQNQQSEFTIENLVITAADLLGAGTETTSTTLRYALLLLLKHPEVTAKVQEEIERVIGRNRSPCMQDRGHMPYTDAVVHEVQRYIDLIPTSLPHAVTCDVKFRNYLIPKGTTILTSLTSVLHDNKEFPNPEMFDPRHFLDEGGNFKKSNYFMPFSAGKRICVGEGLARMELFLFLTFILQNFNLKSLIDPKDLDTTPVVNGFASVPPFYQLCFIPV
Protocol: Test compound/controls working solution or DMSO were added in 238.5 µL of liver microsomes working solution, mixed well by pipetting several times and pre-incubated in a 37 °C shaking water bath for 5 min. Following the pre-incubation, 60 µL of NADPH working solution were added, mixed well by pipetting several times, and incubated in a 37 °C shaking water bath for 10 min. Following the incubation, 300 µL of quenching solution were immediately added and vortexed for ~20 s to mix. All samples were centrifuged at 4000 rpm for 15 min at 4 °C and then the supernatant was transferred for LC-MS/MS analysis. IC50 values were determined by the Hill slope equation using Graph Pad Prism.
For competitive and time-dependent CYP inhibition, the peak area ratios (PAR) of analyte/internal standard were used to semi-quantitatively determine the concentration of acetaminophen (CYP1A2 activity), 4’-hydroxydiclofenac (CYP2C9), 4’-hydroxymephenytoin (CYP2C19), dextrorphan (CYP2D6), 1’-hydroxymidazolam (CYP3A4), 6β-hydroxytestosterone (CYP3A4), hydroxybupropion (CYP2B6), and N-desethylamodiaquine (CYP2C8), with terfenadine as the internal standard by LC-MS/MS method. The HPLC-MS system utilized an Acquity UPLC system and Sciex API 4000 mass spectrometer in ESI positive mode, with quantitation employing MRM. Samples were injected onto an Atlantis T3 5 μM column (2.1 x 50 mm). […]

[2] = Estimation of maximum human plasma concentration
Protocol: An estimation of the maximum plasma concentration of salidroside in humans was made from the pharmacokinetics in rats after oral dosing and the recommended human daily dose of salidroside of 60 mg (two 30 mg capsules). Male Sprague–Dawley rats were dosed either with IV or orally at 12 mg/kg (N = 6/group). Salidroside was moderately cleared (21 mL/min/kg) and well absorbed orally.

[3] = set-up: method as in PMID 22139684, PMID 22525439; settings: rats, two studies; cited from earlier work

Sequence of CYP2D6 (P10635 whole entry): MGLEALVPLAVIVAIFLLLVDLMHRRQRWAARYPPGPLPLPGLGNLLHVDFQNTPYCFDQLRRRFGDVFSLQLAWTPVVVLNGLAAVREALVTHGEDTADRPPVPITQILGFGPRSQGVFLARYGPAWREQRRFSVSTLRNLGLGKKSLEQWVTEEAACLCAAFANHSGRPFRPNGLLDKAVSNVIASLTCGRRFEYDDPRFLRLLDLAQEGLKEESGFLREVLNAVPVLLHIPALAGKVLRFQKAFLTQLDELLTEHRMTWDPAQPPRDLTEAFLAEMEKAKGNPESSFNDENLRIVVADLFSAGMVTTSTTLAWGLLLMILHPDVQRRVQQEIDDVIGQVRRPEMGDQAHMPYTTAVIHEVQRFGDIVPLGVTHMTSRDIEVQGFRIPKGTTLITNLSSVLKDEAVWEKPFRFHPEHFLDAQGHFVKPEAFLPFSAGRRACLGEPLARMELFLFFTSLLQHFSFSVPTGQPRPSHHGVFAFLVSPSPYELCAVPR

Question: For `OC[C@H]1O[C@@H](OCCc2ccc(O)cc2)[C@H](O)[C@@H](O)[C@@H]1O` [Salidroside], which “IC50 Shift” value (CYP2D6) is on record?
Answer: no shift

Question: And the IC50 (CYP2C8)?
Answer: > 50 µM

Question: And the “decrease of losartan AUC0-∞” value [1]?
Answer: ≈ 2 fold

Question: And the “decrease of midazolam AUC0-∞” value [1]?
Answer: ≈ 2 fold

Question: What about the fraction unbound at 5 h, 5 µM (in vitro) of the same compound?
Answer: 0.856

Question: What about the “inhibition of MAO-B” value (MAO-B) of the same compound?
Answer: 35.8%

Question: And the IC50 (CYP2C19)?
Answer: > 50 µM

Question: And the Cmax ([2]; 60 mg PO daily (~1 mg/kg), scaled from rat, read-out: predicted human total Cmax (predicted plasma concentration))?
Answer: < 2000 nM

Question: What about the “predicted human unbound Cmax” value ([2]; 60 mg daily, Cmax x fu,plasma) of the same compound?
Answer: ~ 1.18 μM

Question: And the “percentage recovery of an IV dose as unchanged in the urine” value [3]?
Answer: 53.7% and 64%
